{"source": "paper PMC5403781", "about": "“Heterologous expression of a Streptomyces cyaneus laccase for biomass modification applications” (AMB Express, 2017)", "key": {"ScLac [1]": {"system": "T1, ScLac", "T1 construct": "C-terminal His6 tag (pET-22b(+), NdeI/XhoI), expressed in E. coli BL21 (DE3) Star; primers encode N-terminus METDIIER and C-terminal HGAGHTG before the LE-His6 tag; copper-loaded with CuSO4 after purification", "assay": "spectrophotometric oxidation, […] nm", "assay_type": "biochemical, Streptomyces cyaneus", "conditions": "100 mM MES pH 5.5, 30 °C; free enzyme, copper-loaded; substrate 5–95 µM; read-out: Guaiacol"}, "ScLac [2]": {"system": "T1, ScLac", "assay": "spectrophotometric oxidation, […] nm", "assay_type": "biochemical, Streptomyces cyaneus", "conditions": "100 mM MES pH 5.5, 30 °C; free enzyme, copper-loaded; substrate 5–95 µM; read-out: DMP"}, "ScLac [3]": {"system": "ScLac", "conditions": "read-out: ABTS; 100 mM MES pH 5.5, 30 °C; free enzyme, copper-loaded; substrate 5–95 µM"}}, "note": "Where two headings read alike, the source gives them in different places."}
{"smiles": "COc1ccccc1O", "note": "[guaiacol]", "values": [{"measurement": "Km", "setting": "ScLac [1]", "result": "5.4 ± 1.9", "unit": "µM"}]}
{"smiles": "COc1cccc(OC)c1O", "note": "[DMP, 2,6-dimethoxyphenol]", "values": [{"measurement": "Km", "setting": "ScLac [2]", "result": "202 ± 34.8", "unit": "µM"}]}
{"smiles": "CCn1c(=NN=c2sc3cc(S(=O)(=O)O)ccc3n2CC)sc2cc(S(=O)(=O)O)ccc21", "note": "[ABTS]", "values": [{"measurement": "Km", "setting": "ScLac [3]", "result": "33.5 ± 27.9", "unit": "µM"}]}
